From the C3SDB collision cross section collection
Structures can show the parent of a compound that is named as a salt.

Settings: instrument: DT, single field, calibrated with Agilent tune mix (Agilent)

SMILES | collision cross section (N2) ([M-H]-) [Å²] | collision cross section (N2) ([M+H]+) [Å²] | also measured
C[C@H](CCC(=O)NCC(=O)O)[C@H]1CC[C@H]2[C@@H]3CC[C@@H]4C[C@H](O)CC[C@]4(C)[C@H]3C[C@H](O)[C@]12C [Glycodeoxycholic acid] | 197.81 | – | collision cross section (N2) ([M+Na]+): 203.9 Å²
O=C(O)c1ccc([O-])cc1 [4-Hydroxybenzoate] | 119.33 | – | collision cross section (N2) ([M+H-H2O]+): 119 Å²
CCCC(=O)SCCNC(=O)CCNC(=O)[C@H](O)C(C)(C)COP(=O)(O)OP(=O)(O)OC[C@H]1O[C@@H](n2cnc3c(N)ncnc32)[C@H](O)[C@@H]1OP(=O)(O)O [Butyryl-CoA] | – | 252.9 | –
O=c1cc(-c2ccccc2)oc2ccccc12 [Flavone] | – | 146.7 | –
N[C@@H](CCC(=O)N[C@@H](CCC(=O)O)C(=O)O)C(=O)O [gamma-L-Glutamyl-L-glutamic acid] | – | 162.6 | collision cross section (N2) ([M-H2O-H]-): 152.43 Å²
O=C(O)[C@H](O)[C@@H](O)CO [L-Threonate] | 116.84 | – | –
CC12CCC(=O)C=C1CCC1C2CCC2(C)C(C(=O)CO)CCC12 (stereo unspecified) [11-Deoxycorticosterone] | 184.42 | 186.5 | –
O=C(O)Cc1ccc(O)c(O)c1 [3,4-Dihydroxyphenylacetic acid] | – | – | collision cross section (N2) ([M-H2O-H]-): 125.7 Å²
CC(CC(=O)O)CC(=O)O [3-Methylglutaric acid] | 122.88 | – | –
Nc1ccn([C@@H]2O[C@H](COP(=O)(O)O)[C@@H](O)[C@H]2O)c(=O)n1 [Cytidine 5'-monophosphate] | – | 166.3 | –
C=Cc1c(C)c2cc3[nH]c(cc4nc(cc5nc(cc1[nH]2)C(C)=C5CCC(=O)O)C(CCC(=O)O)=C4C)c(C)c3C=C [Protoporphyrin IX] | 245.23 | 241.4 | –
Cn1c(=O)[nH]c2[nH]c(=O)[nH]c2c1=O [1-Methyluric acid] | 129.18 | – | –
O=C(O)CCCC(=O)C(=O)O [2-Oxoadipic acid] | – | – | collision cross section (N2) ([M+Na-2H]-): 129.65 Å²
Nc1ccn([C@@H]2O[C@H](COP(=O)(O)OP(=O)(O)OP(=O)(O)O)[C@@H](O)[C@H]2O)c(=O)n1 [Cytidine triphosphate] | 179.08 | – | –
O=C([O-])c1cccnc1 [Nicotinate] | – | 124 | –
CC/C=C\C/C=C\C/C=C\C/C=C\C/C=C\CCCC(=O)O [Eicosapentaenoic acid] | 178.53 | – | –
CC1=CC(=O)c2ccccc2C1=O [Menadione (Vitamin K3)] | – | 134.6 | –

SMILES | collision cross section (N2) ([M-H]-) [Å²] | collision cross section (N2) ([M+H]+) [Å²] | also measured
N[C@@H](Cc1cc(I)c(Oc2cc(I)c(O)c(I)c2)c(I)c1)C(=O)O [L-Thyroxine] | – | 216.2 | collision cross section (N2) ([M+Na-2H]-): 194.19 Å²
NC(=O)CC[C@H](N)C(=O)O [L-Glutamine] | – | – | collision cross section (N2) ([M+Na]+): 133.7 Å²
O=C(O)CNC(=O)Cc1ccccc1 [Phenylacetylglycine] | 147.23 | – | –
CC1=C(C/C=C(\C)CCC[C@H](C)CCC[C@H](C)CCCC(C)C)C(=O)c2ccccc2C1=O [Vitamin K1] | 210.94 | 216.1 | –
Cn1cc(C(N)=O)ccc1=O [N1-Methyl-2-pyridone-5-carboxamide] | – | 132.1 | –
CC(C)CCCC(C)CCCC(C)CCCC(C)C(=O)O (stereo unspecified) [Pristanic acid] | 178.79 | – | collision cross section (N2) ([M+Na]+): 206.3 Å²
NC(Cc1cc(I)c(Oc2ccc(O)cc2)c(I)c1)C(=O)O (stereo unspecified) [3,5-Diiodothyronine] | 186.44 | 198.2 | –
Cc1ncc(C[n+]2csc(CCO)c2C)c(N)n1 [Thiamine] | 160.3 | 162.4 | –
O=C(O)CC(C(=O)O)C(O)C(=O)O (stereo unspecified) [Isocitrate] | 125.26 | – | –
CCCCCCCCCCCCCCCCCCCCCCCC(=O)O [Tetracosanoic acid] | 197.93 | – | –
OC[C@H]1O[C@H](OC2[C@@H](O)[C@H](O)C(O)[C@H](O)[C@@H]2O)[C@H](O)[C@@H](O)[C@H]1O (stereo partly specified) [Galactinol] | – | – | collision cross section (N2) ([M+Na-2H]-): 168.98 Å²; collision cross section (N2) ([M+Na]+): 177.7 Å²
CC1=C(/C=C/C(C)=C\C=C\C(C)=C\C=O)C(C)(C)CCC1 [9-cis-Retinal] | – | 170.1 | –
CC(C)CCC[C@@H](C)[C@H]1CC[C@H]2[C@@H]3CC=C4C[C@@H](OS(=O)(=O)O)CC[C@]4(C)[C@H]3CC[C@]12C [Cholesteryl sulfate] | 237.01 | – | –
C[C@@H]1OC(OP(=O)(O)OP(=O)(O)OC[C@H]2O[C@@H](n3cnc4c(=O)nc(N)[nH]c43)[C@H](O)[C@@H]2O)[C@@H](O)[C@H](O)[C@@H]1O (stereo partly drawn) [GDP-L-Fucose] | 206.72 | 217.2 | –
OC1C(O)C(O)C(O)C(O)C1O (stereo unspecified) [myo-Inositol] | 128.61 | – | collision cross section (N2) ([M+Na]+): 148.2 Å²
C[C@]12CC[C@@H]3c4ccc(OS(=O)(=O)O)cc4CC[C@H]3[C@@H]1CCC2=O [Estrone 3-sulfate] | 188.85 | – | –
